The results in this text go back to patent US8173644B2, “3-substituted-[1,2,3]-benzotriazinone compound for enhancing glutamatergic synaptic responses” (Les Laboratoires Servier, priority 2007, dated 2012).

SMILES strings stand for the structures.

Test [1] relates to field EPSP (perforant path / dentate gyrus of the hippocampus). The experiment in a line: In vivo physiological testing: field EPSP in dentate gyrus of hippocampus of anesthetized animals. The settings on record: dose of 5 mg/kg, iv administration. As for the experimental part: The physiological effects of the invention compound were tested in vivo in anesthetized animals according to the following procedures.
Animals are maintained under anesthesia by phenobarbital administered using a Hamilton syringe pump. Stimulating and recording electrodes are inserted into the perforant path and dentate gyrus of the hippocampus, respectively. Once electrodes are implanted, a stable baseline of evoked responses are elicited using single monophasic pulses (100 μs pulse duration) delivered at 3/min to the stimulating electrode. Field EPSPs are monitored until a stable baseline is achieved (about 20-30 min), after which a solution of test compound in HPCD is injected intraperitoneally and evoked field potentials are recorded. Evoked potentials are recorded for approximately 2 h following drug administration or until the amplitude of the field EPSP returns to baseline. In the latter instance, it is common that an iv administration is also carried out with an appropriate dose of the same test compound.

A further test deals with AMPA receptor. The experiment in a line: AMPA mediated whole cell currents in cultured cortical neurons (patch clamp, glutamate-induced steady-state current). In kind it is cell-based, Sprague-Dawley rats. The settings on record: cultured rat cortical neurons, 500 μM glutamate, voltage-clamped at −80 mV; read-out: EC2x value (concentration at which the glutamate induced current is increased by 100%). The method, then:
Synaptic responses mediated by AMPA receptors are increased according to the method of the invention, using the compound described herein. […] The in vitro assay is described as follows. Cortical cells were prepared from day 18-19 embryonic Sprague-Dawley rats and recorded after 3 days in culture. The extracellular solution (ECS) contained (in mM): NaCl (145), KCl (5.4), HEPES (10), MgCl2 (0.8), CaCl2 (1.8), glucose (10), sucrose (30); pH. 7.4. In order to block the voltage-gated sodium currents, 40 nM TTX was added to the recording solution. […]
The whole-cell current was measured with patch-clamp amplifier (Axopatch 200B), filtered at 2 kHz, digitized at 5 kHz and recorded on a PC with pClamp 8. […] A baseline response for each cell was recorded using a 1 s pulse of 500 μM glutamate dissolved in ECS. Responses to test compound were then determined by application of a 10 s pulse of test compound followed by a 1 s pulse of the same concentration of test compound plus 500 μM glutamate and then 10 s of saline. This pulse sequence was repeated until a stable reading was obtained, or until sufficient data points were measured to allow extrapolation to a calculated maximum change.
The mean value of plateau current between 600 ms to 900 ms after application of glutamate or test compound plus glutamate was calculated and used as the parameter to measure the drug effect. […]

As for `O=C1c2cc3nnn(CCc4cccc(F)c4)c(=O)c3cc2OCN1C1CC1` [8-Cyclopropyl-3-[2-(3-fluorophenyl)ethyl]-7,8-dihydro-3H-[1,3]oxazino[6,5-g][1,2,3]-benzotriazine-4,9-dione], in test [1], the “increase in the amplitude of the field EPSP” value worked out at 10%. The EC2x (concentration that doubles the glutamate-induced current) in the test on AMPA receptor was 100 nM.
